Results on 13 compounds are retold here after patent publication US4454120A, “Analgesic dipeptide amides and method of use and compositions thereof” (Sterling Drug Inc., priority 1982, dated 1984).

Broadly, the ED50 is the dose at which the effect has come halfway, by size or by number of responders. Low readings indicate an effect at a small dose, high ones a need for a large dose.

Experiment [1] relates to guinea pig ileum longitudinal muscle. Nature of the experiment: Guinea pig ileum test (inhibition of electrically induced twitch). The note with it: ratio of IC50 of reference Met5-enkephalin (=100) to IC50 of test compound in the same preparation, averaged, usually N=4. It is filed as cell-based. The procedure:
Adult male guinea pigs (Charles River, Hartley strain) weighing 300-500 g. are decapitated, and the terminal ileum is exposed by reflecting the overlying cecum, severed at the ileocecal juncture, and removed while cutting the mesenteric attachments to avoid excessive traction on the tissue. The ileum (about 30 cm. in length) is transferred to a beaker containing warm modified Krebs-Henseleit solution (118 mM sodium chloride, 4.75 mM potassium chloride, 2.54 mM calcium chloride, 1.19 mM potassium dihydrogen phosphate, 1.2 mM magnesium sulfate, 25 mM sodium bicarbonate, 11 mM glucose, 20 μM choline chloride and 0.125 μM pyrilamine maleate). The terminal (aboral) portion (about 10 cm. in length) is discarded, and segments (3-4 cm. in length) are cut from the remainder and gently slid onto a glass rod (5-6 mm. in diameter) and arranged so that the meseneteric attachment is in a straight line. A cotton swab moistened in the solution is then carefully used to separate the longitudinal muscle from the underlying circular muscle. The longitudinal muscle and adhering myenteric plexus is then gently removed from the remaining tissue with forceps.
Strips of this prepared longitudinal muscle are mounted in a double-jacketed organ bath (5 ml.) under tension (1.0 g.), connected to isometric transducers (Grass FT .03), bathed in the modified Krebs-Henseleit solution described above, aerated with oxygen-carbon dioxide (95:5) and maintained at 37° C.
Stimulators (Grass S-44) are set to deliver repetitive monophasic square wave field stimulation (supramaximal voltage, 0.10 Hz., 0.25 msec. duration) through platinum ring electrodes at the top and bottom of the bath. Regular contractions of the muscle, which result from electrically-induced liberation of acetylcholine from postganglionic parasympathetic nerves, are recorded on a polygraph (Grass model 5). Following tissue equilibration (45-60 min.) and repeated washing (every 10 min.) an aqueous solution of a reference or test compound is added to the bath in a microliter volume (1.25-250 μl) and reductions in muscle twitch height are recorded. More compound can be added […] first washing the preparation.
From the results a half-mazimal inhibitory concentration (IC50) value for the compound is computed by regression analysis of a linear plot of logarithm of concentration against percent of inhibition of twitch height (probits). The ratio of the IC50 value of a reference compound to that of a test compound tested in the same preparation is the molar potency ratio. Usually four preparations are tested simultaneously by the same person (N=4), and the resulting four molar potency ratios are averaged.
The following results were obtained using the examples as test compounds and Met^5 -enkephalin as the reference compound.

A further experiment deals with Male Swiss-Webster mice. Description: Mouse acetylcholine writhing test. It is filed as in vivo. The conditions noted are these: for ED50: Mus musculus, sc, subcutaneous, approximate values. How it is done:
Male Swiss-Webster mice each weighing 18-24 g. are treated subcutaneously (10 ml./kg. injection volume) or orally with the test compound in an aqueous vehicle. Twenty minutes thereafter each mouse is injected intraperitoneally with acetylcholine (3.2 mg./kg.) in aqueous sodium chloride (0.9%). This dose of acetylcholine causes one or more characteristic writhes in the two minute period following injection in control mice which receive the aqueous vehicle not containing the test compound. […] Test compounds are screened at doses of 100 and 30 mg./kg. subcutaneously and 300 and 100 mg./kg. orally using 15 mice at each dose level. ED50 values for active compounds are estimated by probit analysis of quantal scores at four or more dose levels using 15 mice at each dose level.
A general note: An intraperitoneal irritant provokes the stretching counted in writhing tests.

The next experiment deals with rat. The conditions noted are these: rat tail flick, relative to morphine, cited from earlier work.
In the next experiment the test system is opiate receptor. The note with it: rat brain membranes, relative to morphine; cited from earlier work.
Another experiment relates to guinea pig ileum. The conditions noted are these: cited from earlier work.
The subject of another experiment is mouse vas deferens. The note with it: cited from earlier work.

A value given as a limit tells only on which side of the number the result lay.

With “L-tyrosyl-N-(3-phenylpropyl)-D-serinamide hydrate (3:2) [Example 10]”, the “Average Molar Potency Ratio” value in experiment [1] is given as 15.

As for `CSCC[C@@H](NC(=O)[C@@H](N)Cc1ccc(O)cc1)C(=O)NCCCc1ccccc1.Cl.O` [Example 1, L-tyrosyl-N-(3-phenylpropyl)-D-methioninamide monohydrochloride monohydrate], in experiment [1], the “Average Molar Potency Ratio” value stood at 279. The compound also displayed an ED50 with Male Swiss-Webster mice of over 30 mg/kg.

With `CN(CCCc1ccccc1)C(=O)[C@@H](CC[S+](C)[O-])NC(=O)[C@@H](N)Cc1ccc(O)cc1.Cl.O` (stereo partly drawn) [Example 4, L-tyrosyl-N-methyl-N-(3-phenylpropyl)-D-methioninamide S-oxide monohydrochloride monohydrate], the “Average Molar Potency Ratio” value in experiment [1] was found to be 5. In addition, the ED50 with Male Swiss-Webster mice was over 30 mg/kg.

In the case of `CN(C(=O)[C@@H](N)Cc1ccc(O)cc1)[C@H](CC[S+](C)[O-])C(=O)NCCCc1ccccc1.Cl.O` (stereo partly drawn) [Example 8, L-tyrosyl-N^2-methyl-N-(3-phenylpropyl)-D-methioninamide S-oxide monhydrochloride monohydrate], the “Average Molar Potency Ratio” value in experiment [1] was found to be 650.

As to Met^5 -enkephalin [reference compound], the “Average Molar Potency Ratio” value in experiment [1] stood at 100.

Take `CN[C@@H](Cc1ccc(O)cc1)C(=O)N[C@@H](CCSC)C(=O)NCCCc1ccccc1.Cl.O` [Example 5, N-methyl-L-tyrosyl-N-(3-phenylpropyl)-L-methioninamide monohydrochloride hydrate (4:1)]: the “Average Molar Potency Ratio” value in experiment [1] is 180. Moreover, the “95% confidence limits of subcutaneous ED50” value with Male Swiss-Webster mice lay in the range of 5.0 to 12 mg/kg. Besides, the “subcutaneous ED50” value with Male Swiss-Webster mice (acetylcholine 3.2 mg./kg. i.p. 20 min after the compound, probit analysis) stood at 8.5 mg/kg.

As for `CSCC[C@@H](NC(=O)[C@@H](N)Cc1ccc(O)cc1)C(=O)N(C)CCCc1ccccc1.Cl` [Example 3, L-tyrosyl-N-methyl-N-(3-phenylpropyl)-D-methioninamide monohydrochloride], the “Average Molar Potency Ratio” value in experiment [1] was 19.

Take “L-tyrosyl-N-(3-phenylpropyl)-D-methioninamide S-oxide monohydrochloride sesquihydrate [Example 2]”: the “Average Molar Potency Ratio” value in experiment [1] is reported as 1180.

Consider “N-methyl-L-tyrosyl-N-(3-phenylpropyl)-D-methioninamide S-oxide monohydrochloride hemihydrate [Example 6]”, for which the “Average Molar Potency Ratio” value in experiment [1] was determined as 360.

For the compound `CSCC[C@H](C(=O)NCCCc1ccccc1)N(C)C(=O)[C@@H](N)Cc1ccc(O)cc1.Cl` [Example 7, L-tyrosyl-N^2-methyl-N-(3-phenylpropyl)-D-methioninamide monohydrochloride], in experiment [1], the “Average Molar Potency Ratio” value is on record as 260.

Regarding `Cl.NC(=O)CC[C@@H](NC(=O)[C@@H](N)Cc1ccc(O)cc1)C(=O)NCCCc1ccccc1.O` [Example 9, L-tyrosyl-N^1-(3-phenylpropyl)-D-glutamamide monohydrochloride hydrate (4:3)], the “Average Molar Potency Ratio” value in experiment [1] stood at 47.

Consider `C[C@@H](NC(=O)[C@@H](N)Cc1ccc(O)cc1)C(N)=O` [H-Tyr-D-Ala-NH2], for which, in the experiment on rat (intravenous), the “times less potent than morphine, intravenously” value is listed as “greater than 10 times”. Moreover, in the experiment on rat (intraventricular), the “times less potent than morphine, intraventricularly” value is on record as 200 times. Further, the “times less affinity than morphine” value with opiate receptor is given as 830 times.

Turning to `C[C@@H](NC(=O)[C@@H](N)Cc1ccc(O)cc1)C(=O)NCCNCCc1ccccc1` [HTyrD-AlaNH(CH2)2 NH(CH2)2 Phenyl], the “potency relative to Met-enkephalin” value in the experiment with guinea pig ileum and with mouse vas deferens was under 1% in each case.
